Measurements from ChEMBL document CHEMBL3232755, “Optimization of plasmepsin inhibitor by focusing on similar structural feature with chloroquine to avoid drug-resistant mechanism of Plasmodium falciparum” (Bioorg Med Chem Lett, 2014).

What was measured:
Plasmodium falciparum [1] = assay: Antimalarial activity against chloroquine, mefloquine and pyrimethamine-resistant Plasmodium falciparum TM91C235 by SYBR green I staining-based fluorescence assay; type: functional, organism-based
Plasmodium falciparum [2] = assay: Resistance index, ratio of EC50 for chloroquine, mefloquine and pyrimethamine-resistant Plasmodium falciparum TM91C235 to EC50 for chloroquine-sensitive Plasmodium falciparum D6; type: functional
Plasmepsin II = Plasmepsin II (Plasmodium falciparum, UniProt P46925); assay: Inhibition of Plasmodium falciparum plasmepsin 2
Plasmodium falciparum [3] = assay: Antimalarial activity against chloroquine-sensitive Plasmodium falciparum D6 by SYBR green I staining-based fluorescence assay; type: functional, organism-based
Plasmodium falciparum [4] = assay: Resistance index, ratio of EC50 for chloroquine and pyrimethamine-resistant mefloquine-sensitive Plasmodium falciparum W2 to EC50 for chloroquine-sensitive Plasmodium falciparum D6; type: functional
Plasmodium falciparum [5] = assay: Antimalarial activity against chloroquine and pyrimethamine-resistant mefloquine-sensitive Plasmodium falciparum W2 by SYBR green I staining-based fluorescence assay; type: functional, organism-based

Chain of Plasmepsin II (P46925 whole entry): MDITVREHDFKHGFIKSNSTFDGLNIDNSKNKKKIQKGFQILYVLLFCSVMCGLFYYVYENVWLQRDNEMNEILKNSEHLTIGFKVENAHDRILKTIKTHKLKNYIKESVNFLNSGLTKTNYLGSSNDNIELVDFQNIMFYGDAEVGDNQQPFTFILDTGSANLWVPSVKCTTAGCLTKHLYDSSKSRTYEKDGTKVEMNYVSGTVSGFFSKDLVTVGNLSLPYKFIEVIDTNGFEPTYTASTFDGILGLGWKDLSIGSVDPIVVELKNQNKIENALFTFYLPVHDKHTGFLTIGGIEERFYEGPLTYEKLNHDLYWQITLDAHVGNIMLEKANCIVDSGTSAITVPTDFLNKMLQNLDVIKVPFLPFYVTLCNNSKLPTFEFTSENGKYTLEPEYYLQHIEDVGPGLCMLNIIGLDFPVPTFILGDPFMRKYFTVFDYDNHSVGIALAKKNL

SMILES | EC50 (Plasmodium falciparum [1]) | Ratio EC50 (Plasmodium falciparum [2]) | Ki (Plasmepsin II) | EC50 (Plasmodium falciparum [3]) | Ratio EC50 (Plasmodium falciparum [4]) | EC50 (Plasmodium falciparum [5])
CNCCN(C)c1cc(C)c(OCC(=O)N[C@@H](Cc2ccccc2)[C@H](O)C(=O)N2CSC(C)(C)[C@H]2C(=O)N[C@H]2c3ccccc3C[C@H]2O)c(C)c1 | 860 nM | 4.5 |  |  |  | 
CCNCCNc1cc(C)c(OCC(=O)N[C@@H](Cc2ccccc2)[C@H](O)C(=O)N2CSC(C)(C)[C@H]2C(=O)N[C@H]2c3ccccc3C[C@H]2O)c(C)c1 | 1900 nM | 8.6 |  |  |  | 
Cc1cc(NCCCl)cc(C)c1OCC(=O)N[C@@H](Cc1ccccc1)[C@H](O)C(=O)N1CSC(C)(C)[C@H]1C(=O)N[C@H]1c2ccccc2C[C@H]1O |  | <=2 | 5.5 nM |  |  | 
COC(CNc1cc(C)c(OCC(=O)N[C@@H](Cc2ccccc2)[C@H](O)C(=O)N2CSC(C)(C)[C@H]2C(=O)N[C@H]2c3ccccc3C[C@H]2O)c(C)c1)OC |  | <=2 | 11 nM | 850 nM |  | 
CCOP(=O)(CCNc1cc(C)c(OCC(=O)N[C@@H](Cc2ccccc2)[C@H](O)C(=O)N2CSC(C)(C)[C@H]2C(=O)N[C@H]2c3ccccc3C[C@H]2O)c(C)c1)OCC |  | <=2 | 22 nM | 600 nM |  | 
Cc1cccc(CNc2cc(C)c(OCC(=O)N[C@@H](Cc3ccccc3)[C@H](O)C(=O)N3CSC(C)(C)[C@H]3C(=O)N[C@H]3c4ccccc4C[C@H]3O)c(C)c2)n1 |  | <=2 | 4.4 nM |  |  | 
Cc1cc(NCc2c[nH]cn2)cc(C)c1OCC(=O)N[C@@H](Cc1ccccc1)[C@H](O)C(=O)N1CSC(C)(C)[C@H]1C(=O)N[C@H]1c2ccccc2C[C@H]1O |  | <=2 | 4.8 nM |  |  | 
Cc1cc(NCc2ccnc3ccccc23)cc(C)c1OCC(=O)N[C@@H](Cc1ccccc1)[C@H](O)C(=O)N1CSC(C)(C)[C@H]1C(=O)N[C@H]1c2ccccc2C[C@H]1O |  | <=2 | 1.7 nM | 500 nM |  | 
Cc1cc(NC(=O)CN)cc(C)c1OCC(=O)N[C@@H](Cc1ccccc1)[C@H](O)C(=O)N1CSC(C)(C)[C@H]1C(=O)N[C@H]1c2ccccc2C[C@H]1O |  |  | 1.2 nM |  |  | 
Cc1cc(NC(=O)CCN)cc(C)c1OCC(=O)N[C@@H](Cc1ccccc1)[C@H](O)C(=O)N1CSC(C)(C)[C@H]1C(=O)N[C@H]1c2ccccc2C[C@H]1O | 730 nM | 2.8 | 2.3 nM | 260 nM |  | 
Cc1cc(NC(=O)CCCN)cc(C)c1OCC(=O)N[C@@H](Cc1ccccc1)[C@H](O)C(=O)N1CSC(C)(C)[C@H]1C(=O)N[C@H]1c2ccccc2C[C@H]1O | 1300 nM | 0.41 | 1.1 nM | 3200 nM |  | 
Cc1cc(NC(=O)CCCCN)cc(C)c1OCC(=O)N[C@@H](Cc1ccccc1)[C@H](O)C(=O)N1CSC(C)(C)[C@H]1C(=O)N[C@H]1c2ccccc2C[C@H]1O | 620 nM | 0.34 | 1 nM | 1800 nM |  | 
Cc1cc(NC(=O)CCCCCN)cc(C)c1OCC(=O)N[C@@H](Cc1ccccc1)[C@H](O)C(=O)N1CSC(C)(C)[C@H]1C(=O)N[C@H]1c2ccccc2C[C@H]1O | 720 nM | 0.28 | 5.7 nM | 2600 nM |  | 
Cc1cc(NC(=O)CN2CCOCC2)cc(C)c1OCC(=O)N[C@@H](Cc1ccccc1)[C@H](O)C(=O)N1CSC(C)(C)[C@H]1C(=O)N[C@H]1c2ccccc2C[C@H]1O |  |  | 4.3 nM |  |  | 
Cc1cc(NCc2ccccn2)cc(C)c1OCC(=O)N[C@@H](Cc1ccccc1)[C@H](O)C(=O)N1CSC(C)(C)[C@H]1C(=O)N[C@H]1c2ccccc2C[C@H]1O |  |  |  |  | 1.3 | 730 nM
